Results on 18 compounds are retold here after patent US11957687B2 (REGENERON PHARMACEUTICALS, INC., priority 2019, dated 2024).

Series [1] can be described thus: Microsome stability assay, mouse liver microsomes. Particulars: 1 μM compound, 0.5 mg/mL microsomal protein. Format: in vitro ADME. The method in brief: (§1)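 Compound at 1 μM incubated at 37° C with pooled human or mouse liver microsomes (0.5 mg/mL protein) plus NADPH regenerating system, sampled at 0–60 min; a 60-min no-NADPH incubation also included. Single replicate; LC/MS/MS disappearance from analyte/internal standard peak area ratios, without standard curve.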

The target in the next series is HSD17B13 (Homo sapiens (Human), UniProt Q7Z5P4). Put plainly: HSD17B13 enzymatic inhibition assay (150 nM or 50 nM HSD17B13). Format: biochemical. Particulars: 50 nM HSD17B13; read-out: Inhibition of 50 nM of HSD17B13 IC50.
HSD17B13, sequence (Q7Z5P4 other isoform, or with tags, fused parts or gaps): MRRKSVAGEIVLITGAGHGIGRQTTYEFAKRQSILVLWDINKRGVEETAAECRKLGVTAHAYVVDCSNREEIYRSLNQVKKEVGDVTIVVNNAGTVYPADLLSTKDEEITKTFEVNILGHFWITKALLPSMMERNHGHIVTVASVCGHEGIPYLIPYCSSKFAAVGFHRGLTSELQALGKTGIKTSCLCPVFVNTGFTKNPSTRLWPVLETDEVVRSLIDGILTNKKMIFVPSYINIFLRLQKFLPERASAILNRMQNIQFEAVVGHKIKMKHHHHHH
The next series addresses HSD17B2 (Homo sapiens (Human), UniProt P37059). Put plainly: HSD17B2 enzymatic blocking assay. Format: biochemical. Particulars: 1.8 μM Estradiol, 650 μM NAD; read-out: Inhibition of HSD17B2 IC50. The method, then: To screen compounds of the disclosure for their ability to block HSD17B2 function, an enzymatic blocking assay was performed. For the assay, HSD17B2 activity was measured by detecting NADH formation from oxidation of Estradiol using a NADH Glo luminescence assay (Promega, #Cat. No. G9062). Compounds of the disclosure were evaluated in a dose titration assay where the compounds were titrated at 10-point dose curve using an Echo-555 liquid handling dispenser. HSD17B2 (SEQ ID NO: 3, expressed in mammalian cells) was added at a final concentration of 2 ng/μL in a buffer containing 50 mM Tris-HCl, pH 7.5, Pluronic F-127 0.05%, Tween20 0.01%, BSA 0.01% into a low volume white 384-well assay plate. Compounds were incubated with the enzyme for 15 min at 20° C. The assay reaction was then initiated by addition of 1.8 μM Estradiol substrate (Sigma, catalog #E2758-250MG, CAS: 50-28-2) and 650 μM NAD co-factor, and the reaction mixture was incubated for 45 min at 20° C. DMSO at a concentration of 0.5% was used as a negative control and a ‘no substrate’ control was used a positive control in the assay. Detection reagent was then added as per manufacturer's instructions, and the plate was subsequently incubated in the dark for 1 hour at room temperature, NADH generated was detected in the luminescence mode on the Envision Perkin Elmer plate reader. The IC50 values were determined using Dotmatics analysis software.

Series [2] is described as follows: Microsome stability assay, human liver microsomes. It counts as in vitro ADME. Particulars: 1 μM compound, 0.5 mg/mL microsomal protein; for microsomal CLint at 1 μM / half-life at 1 μM / microsomal CLint at 1 h, 1 µM / half-life at 1 h, 1 µM: human, human liver microsomes, pooled, NADPH, 37° C.; for microsomal CLint at 1 μM / microsomal CLint at 1 h, 1 µM: read-out: Microsome Stability Human liver microsomes Cl; for half-life at 1 μM / half-life at 1 h, 1 µM: read-out: Microsome Stability Human liver microsomes T½. The method in brief: as §1

A further series concerns the target HSD17B1 (Homo sapiens (Human), UniProt P14061). Put plainly: HSD17B1 enzymatic blocking assay. It counts as biochemical. Particulars: 25 μM Estradiol, 500 μM NAD; read-out: Inhibition of HSD17B1 IC50. The method, then: To screen compounds of the disclosure for their ability to block HSD17B1 function, an enzymatic blocking assay was performed. For the assay, HSD17B1 activity was measured by detecting NADH formation from oxidation of Estradiol using a NADH Glo luminescence assay (Promega, #Cat. No. G9062). […] Compounds were incubated with the enzyme for 30 minutes at room temperature. […] DMSO at a concentration of 0.5% was used as a negative control and a ‘no substrate’ control was used a positive control in the assay. Detection reagent was then added as per manufacturer's instructions, and the plate was subsequently incubated in the dark for 1 hour at room temperature, NADH generated was detected in the luminescence mode on the Envision Perkin Elmer plate reader. The IC50 values were determined using Dotmatics analysis software.

HSD17B1, sequence (P14061 other isoform, or with tags, fused parts or gaps): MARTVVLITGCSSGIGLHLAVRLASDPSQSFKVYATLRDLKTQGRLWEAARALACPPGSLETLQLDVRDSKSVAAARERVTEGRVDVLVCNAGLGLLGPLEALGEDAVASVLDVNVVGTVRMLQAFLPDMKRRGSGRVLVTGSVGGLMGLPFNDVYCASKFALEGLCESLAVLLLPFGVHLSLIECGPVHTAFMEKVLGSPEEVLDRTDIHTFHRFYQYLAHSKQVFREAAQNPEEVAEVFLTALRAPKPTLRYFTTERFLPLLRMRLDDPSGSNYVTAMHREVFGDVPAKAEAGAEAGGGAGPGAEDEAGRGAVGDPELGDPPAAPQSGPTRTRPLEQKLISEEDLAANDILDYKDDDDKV
HSD17B2, sequence (P37059 other isoform, or with tags, fused parts or gaps): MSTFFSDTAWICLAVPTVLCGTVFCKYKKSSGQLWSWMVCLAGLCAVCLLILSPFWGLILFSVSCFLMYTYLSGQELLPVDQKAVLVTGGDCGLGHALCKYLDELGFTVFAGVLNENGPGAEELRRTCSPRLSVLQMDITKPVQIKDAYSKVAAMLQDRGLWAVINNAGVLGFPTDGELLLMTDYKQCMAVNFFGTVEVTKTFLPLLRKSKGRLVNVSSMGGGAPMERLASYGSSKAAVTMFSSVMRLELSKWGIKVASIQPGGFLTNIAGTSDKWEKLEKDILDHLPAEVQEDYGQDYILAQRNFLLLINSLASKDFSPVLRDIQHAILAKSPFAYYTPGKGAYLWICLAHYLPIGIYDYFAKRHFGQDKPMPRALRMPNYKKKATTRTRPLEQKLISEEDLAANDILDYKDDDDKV

In the case of `O=C(NC(c1ccccc1)c1ccc(CC(F)(F)F)cc1)c1ccc(C(F)(F)F)[nH]c1=O` (centres unmarked) [Compound 12, 2-oxo-N-(phenyl(4-(2,2,2-trifluoroethyl)phenyl)methyl)-6-(trifluoromethyl)-1,2-dihydropyridine-3-carboxamide], the “Microsome Stability Mouse liver microsomes % Remaining @60 min” value in series [1] (60 min) is 56.90%. Also, the microsomal CLint at 1 h, 1 µM in series [1] (mouse, mouse liver microsomes, pooled, NADPH, 37° C., read-out: Microsome Stability Mouse liver microsomes Cl) stood at 18.6 µL/min/mg. Also, the half-life at 1 h, 1 µM in series [1] (mouse, mouse liver microsomes, pooled, NADPH, 37° C., read-out: Microsome Stability Mouse liver microsomes T½) came out at 74.5 min. Besides, the IC50 on HSD17B13 was 0.39 µM. The IC50 on HSD17B2 is 15.6 µM. In addition, in series [2], the “Microsome Stability Human liver microsomes % Remaining @60 min” value came to 84.70%, the microsomal CLint at 1 μM is below 9.6 µL/min/mg and the half-life at 1 μM is above 145 min.
For the compound `N#Cc1ccc(C(NC(=O)c2ccc(C(F)(F)F)[nH]c2=O)c2ccccc2)cc1` (centres unmarked) [Compound 12A, N-((4-cyanophenyl)(phenyl)methyl)-2-oxo-6-(trifluoromethyl)-1,2-dihydropyridine-3-carboxamide], the IC50 was 0.56 µM at HSD17B13, above 30 µM on HSD17B1 and 23.7 µM on HSD17B2.
For `COc1ccc(C(NC(=O)c2ccc(C(F)(F)F)[nH]c2=O)c2ccccc2)cc1` (centres unmarked) [Compound 26, N-((4-methoxyphenyl)(phenyl)methyl)-2-oxo-6-(trifluoromethyl)-1,2-dihydropyridine-3-carboxamide], on HSD17B13, the IC50 is 1.2 µM. The IC50 on HSD17B2 was 22.7 µM. Besides, in series [2], the “Microsome Stability Human liver microsomes % Remaining @60 min” value was 16.00%; the microsomal CLint at 1 h, 1 µM turned out to be 62.4 µL/min/mg; the half-life at 1 h, 1 µM stood at 22.2 min.
As to `O=C(NC(c1ccccc1)c1ccc(C(F)(F)F)cc1)c1ccc(C(F)(F)F)[nH]c1=O` (centres unmarked) [Compound 28, N-(phenyl(4-(trifluoromethyl)phenyl)methyl)-2-oxo-6-(trifluoromethyl)-1,2-dihydropyridine-3-carboxamide], the IC50 at HSD17B13 came out at 1.3 µM. Further, the IC50 on HSD17B2 was determined as 12.6 µM. Moreover, in series [2], the “Microsome Stability Human liver microsomes % Remaining @60 min” value amounted to 94.00%, the microsomal CLint at 1 μM is below 9.6 µL/min/mg and the half-life at 1 μM was above 145 min.
As for `Cc1ccc2c(c1)-c1cc(C)ccc1C2NC(=O)c1ccc(C(F)(F)F)[nH]c1=O` [Compound 43, N-(3,6-dimethyl-9H-fluoren-9-yl)-2-oxo-6-(trifluoromethyl)-1,2-dihydropyridine-3-carboxamide], on HSD17B13, the IC50 came to 0.49 µM. The IC50 at HSD17B2 was determined as 6.59 µM. Besides, in series [2], the “Microsome Stability Human liver microsomes % Remaining @60 min” value turned out to be 31.30%; the microsomal CLint at 1 h, 1 µM worked out at 39.8 µL/min/mg; the half-life at 1 h, 1 µM turned out to be 34.8 min.
With `O=C(NC1c2ccccc2Oc2ccc(C3CC3)cc21)c1ccc(C(F)(F)F)[nH]c1=O` (centres unmarked) [Compound 161, N-(2-cyclopropyl-9H-xanthen-9-yl)-2-oxo-6-(trifluoromethyl)-1,2-dihydropyridine-3-carboxamide], the IC50 on HSD17B13 was 0.27 µM; on HSD17B1 it was 9.16 µM; on HSD17B2 it was 8.22 µM.
`CCc1cc(C(=O)NC2c3ccc(C)cc3Oc3cc(C)ccc32)c(=O)[nH]c1C(F)(F)F` [Compound 176, N-(3,6-dimethyl-9H-xanthen-9-yl)-5-ethyl-2-oxo-6-(trifluoromethyl)-1,2-dihydropyridine-3-carboxamide]: the results for the IC50 at HSD17B13, on HSD17B1 and on HSD17B2 were 0.02 µM, 6.43 µM and 28.3 µM, respectively.
On the same counts, the results for `Cc1ccc2c(c1)Oc1cc(C)ccc1C2NC(=O)c1cc(-c2ccccc2)c(C(F)(F)F)[nH]c1=O` [Compound 177, N-(3,6-dimethyl-9H-xanthen-9-yl)-2-oxo-5-phenyl-6-(trifluoromethyl)-1,2-dihydropyridine-3-carboxamide] are 0.04 µM, 4.21 µM and 14.6 µM.
As for `CCCc1cc(C(=O)NC2c3ccc(Cl)cc3Oc3cc(Cl)ccc32)c(=O)[nH]c1C(F)(F)F` [Compound 178, N-(3,6-dichloro-9H-xanthen-9-yl)-2-oxo-5-propyl-6-(trifluoromethyl)-1,2-dihydropyridine-3-carboxamide], the IC50 at HSD17B13 was found to be 0.06 µM; on HSD17B1, 28.7 µM; at HSD17B2, 64 µM.
The like results for `C=Cc1cc(C(=O)NC2c3ccc(C)cc3Oc3cc(C)ccc32)c(=O)[nH]c1C(F)(F)F` [Compound 182, N-(3,6-dimethyl-9H-xanthen-9-yl)-2-oxo-6-(trifluoromethyl)-5-vinyl-1,2-dihydropyridine-3-carboxamide] were, in that order, 0.02 µM, 5.16 µM and 10.3 µM.
On the same counts, the results for `Cc1ccc2c(c1)Oc1cc(C)ccc1C2NC(=O)c1cc(C2=CCCCC2)c(C(F)(F)F)[nH]c1=O` [Compound 183, 5-(cyclohex-1-en-1-yl)-N-(3,6-dimethyl-9H-xanthen-9-yl)-2-oxo-6-(trifluoromethyl)-1,2-dihydropyridine-3-carboxamide] are 0.03 µM, 4.55 µM and 9.61 µM.
The like results for `Cc1ccc2c(c1)Oc1cc(C)ccc1C2NC(=O)c1cnc(C(F)(F)F)[nH]c1=O` [Compound 194, N-(3,6-dimethyl-9H-xanthen-9-yl)-6-oxo-2-(trifluoromethyl)-1,6-dihydropyrimidine-5-carboxamide] were, in that order, 0.09 µM, 19.2 µM and 17.4 µM.
Regarding `CCCc1cc(CCC)cc(NC(=O)c2ccc(C(F)(F)F)[nH]c2=O)c1` [Compound 271, N-(3,5-dipropylphenyl)-2-oxo-6-(trifluoromethyl)-1,2-dihydropyridine-3-carboxamide], the IC50 at HSD17B13 is 2.11 µM; at HSD17B1, 27.9 µM; at HSD17B2 it was above 100 µM.
The like results for `COc1ccc2c(c1)Sc1cc(OC)ccc1C2NC(=O)c1ccc(C(F)F)[nH]c1=O` [Compound 274, 6-(difluoromethyl)-N-(3,6-dimethoxy-9H-thioxanthen-9-yl)-2-oxo-1,2-dihydropyridine-3-carboxamide] were, in that order, 0.27 µM, 8.39 µM and 9.16 µM.
Turning to `Cc1ccc2c(c1)Sc1cc(C)ccc1C2NC(=O)c1ccc(C(F)F)[nH]c1=O` [Compound 282, 6-(difluoromethyl)-N-(3,6-dimethyl-9H-thioxanthen-9-yl)-2-oxo-1,2-dihydropyridine-3-carboxamide], the IC50 is 0.14 µM on HSD17B13, above 30 µM at HSD17B1 and above 100 µM at HSD17B2.
On the same counts, the results for `CCC1CCC(NC(=O)c2ccc(C(F)(F)F)[nH]c2=O)c2ccc(C)cc21` (centres unmarked) [Compound 300, N-(4-ethyl-6-methyl-1,2,3,4-tetrahydronaphthalen-1-yl)-2-oxo-6-(trifluoromethyl)-1,2-dihydropyridine-3-carboxamide] are 0.14 µM, 18 µM and 10.2 µM.
As to `Cc1ccc2c(c1)C(C)CCC2NC(=O)c1ccc(C(F)(F)F)[nH]c1=O` (centres unmarked) [Compound 302, N-(4,6-dimethyl-1,2,3,4-tetrahydronaphthalen-1-yl)-2-oxo-6-(trifluoromethyl)-1,2-dihydropyridine-3-carboxamide], the half-inhibitory concentration (IC50) at HSD17B13 was 0.16 µM; at HSD17B1 it was above 30 µM; on HSD17B2, 23 µM.
The like results for `CCCc1sc2cc(C)ccc2c1NC(=O)c1ccc(C(F)(F)F)[nH]c1=O` [Compound 308, N-(6-methyl-2-propylbenzo[b]thiophen-3-yl)-2-oxo-6-(trifluoromethyl)-1,2-dihydropyridine-3-carboxamide] were, in that order, 0.07 µM, 15.4 µM and 16.9 µM.
